Test results as given in the NIST ThermoML archive (doi:10.1021/je400968v).
± gives the expanded uncertainty stated by the source.

Columns and labels:
[1] = mn = molality of the nth substance listed, in mol/kg; details: 101 kPa, Liquid; for viscosity: Capillary tube (Ostwald / Ubbelohde) method; for mass density: Vibrating tube method
[2] = 101 kPa, Liquid; for viscosity: Capillary tube (Ostwald / Ubbelohde) method; for mass density: Vibrating tube method

O [water] + Cc1c(N)cccc1N
[1], m2 = 0
Details | mass density [kg/m3] | viscosity [mPa·s]
293.15 K | – | 1.002 ± 0.008
303.15 K | – | 0.798 ± 0.007
313.15 K | – | 0.653 ± 0.006
323.15 K | 988.04 ± 0.23 | 0.547 ± 0.005
333.15 K | 983.2 ± 0.23 | 0.467 ± 0.004

CCCCO [butan-1-ol]
[2]
Details | mass density [kg/m3] | viscosity [mPa·s]
293.15 K | 809.69 ± 0.17 | 2.908 ± 0.019
303.15 K | 802.04 ± 0.17 | 2.225 ± 0.015
313.15 K | 794.27 ± 0.17 | 1.723 ± 0.012
323.15 K | 786.32 ± 0.17 | 1.351 ± 0.009
333.15 K | 778.16 ± 0.17 | 1.071 ± 0.008

O [water] + Cc1ccc(N)cc1N
[1], m2 = 0
Details | mass density [kg/m3]
323.15 K | 988.04 ± 0.23
333.15 K | 983.2 ± 0.23

Cc1c(N)cccc1N [2,6-diaminotoluene] + CCCCO
[1]
Details | mass density, 293.15 K [kg/m3] | mass density, 303.15 K [kg/m3] | mass density, 313.15 K [kg/m3] | mass density, 323.15 K [kg/m3] | mass density, 333.15 K [kg/m3] | viscosity, 293.15 K [mPa·s] | viscosity, 303.15 K [mPa·s] | viscosity, 313.15 K [mPa·s] | viscosity, 323.15 K [mPa·s] | viscosity, 333.15 K [mPa·s]
m1 = 0.05 | 811.28 ± 0.17 | 803.61 ± 0.17 | 795.81 ± 0.17 | 787.85 ± 0.17 | 779.68 ± 0.17 | 2.922 ± 0.019 | 2.233 ± 0.015 | 1.728 ± 0.012 | 1.356 ± 0.009 | 1.075 ± 0.008
m1 = 0.0995 | 812.81 ± 0.17 | 805.13 ± 0.17 | 797.31 ± 0.17 | 789.34 ± 0.17 | 781.16 ± 0.17 | 2.941 ± 0.019 | 2.246 ± 0.015 | 1.735 ± 0.012 | 1.361 ± 0.009 | 1.078 ± 0.008
m1 = 0.1499 | 814.34 ± 0.17 | 806.66 ± 0.17 | 798.81 ± 0.17 | 790.84 ± 0.17 | 782.65 ± 0.17 | 2.96 ± 0.019 | 2.259 ± 0.015 | 1.746 ± 0.012 | 1.368 ± 0.009 | 1.085 ± 0.008
m1 = 0.1994 | 815.82 ± 0.17 | 808.13 ± 0.17 | 800.27 ± 0.17 | 792.28 ± 0.17 | 784.08 ± 0.17 | 2.978 ± 0.02 | 2.268 ± 0.015 | 1.755 ± 0.012 | 1.374 ± 0.009 | 1.087 ± 0.008
m1 = 0.2495 | 817.27 ± 0.17 | 809.58 ± 0.17 | 801.7 ± 0.17 | 793.7 ± 0.17 | 785.5 ± 0.17 | 3.001 ± 0.02 | 2.291 ± 0.016 | 1.764 ± 0.012 | 1.379 ± 0.01 | 1.093 ± 0.008

CCCCO [butan-1-ol] + Cc1c(N)cccc1N
[1], m2 = 0
Details | mass density [kg/m3] | viscosity [mPa·s]
293.15 K | 809.69 ± 0.17 | 2.908 ± 0.019
303.15 K | 802.04 ± 0.17 | 2.225 ± 0.015
313.15 K | 794.27 ± 0.17 | 1.723 ± 0.012
323.15 K | 786.32 ± 0.17 | 1.351 ± 0.009
333.15 K | 778.16 ± 0.17 | 1.071 ± 0.008

CCCO [propan-1-ol] + Cc1ccc(N)cc1N
[1], m2 = 0
Details | mass density [kg/m3] | viscosity [mPa·s]
293.15 K | 803.86 ± 0.17 | 2.171 ± 0.014
303.15 K | 795.54 ± 0.17 | 1.696 ± 0.012
313.15 K | 787.37 ± 0.17 | 1.338 ± 0.009
323.15 K | 779.01 ± 0.18 | 1.067 ± 0.007
333.15 K | 770.42 ± 0.18 | 0.859 ± 0.006

CCO [ethanol]
[2]
Details | mass density [kg/m3] | viscosity [mPa·s]
293.15 K | 789.56 ± 0.16 | 1.179 ± 0.008
303.15 K | 780.98 ± 0.16 | 0.972 ± 0.006
313.15 K | 772.22 ± 0.16 | 0.806 ± 0.006
323.15 K | 763.29 ± 0.17 | 0.672 ± 0.005
333.15 K | 754.18 ± 0.17 | 0.564 ± 0.004

Cc1ccc(N)cc1N [4-methyl-1,3-benzendiamine] + O
[1]
Details | mass density, 293.15 K [kg/m3] | mass density, 303.15 K [kg/m3] | mass density, 313.15 K [kg/m3] | mass density, 323.15 K [kg/m3] | mass density, 333.15 K [kg/m3] | viscosity, 293.15 K [mPa·s] | viscosity, 303.15 K [mPa·s] | viscosity, 313.15 K [mPa·s] | viscosity, 323.15 K [mPa·s] | viscosity, 333.15 K [mPa·s]
m1 = 0.0503 | 998.84 ± 0.23 | 996.26 ± 0.23 | 992.81 ± 0.23 | 988.59 ± 0.23 | 983.71 ± 0.23 | 1.018 ± 0.008 | 0.81 ± 0.007 | 0.662 ± 0.006 | 0.554 ± 0.005 | 0.472 ± 0.004
m1 = 0.0998 | 999.45 ± 0.23 | 996.84 ± 0.23 | 993.36 ± 0.23 | 989.11 ± 0.23 | 984.2 ± 0.23 | 1.035 ± 0.008 | 0.822 ± 0.007 | 0.671 ± 0.006 | 0.562 ± 0.005 | 0.479 ± 0.004
m1 = 0.1503 | 1000.06 ± 0.23 | 997.41 ± 0.23 | 993.9 ± 0.23 | 989.62 ± 0.23 | 984.68 ± 0.23 | 1.051 ± 0.009 | 0.831 ± 0.007 | 0.679 ± 0.006 | 0.571 ± 0.005 | 0.484 ± 0.004
m1 = 0.1999 | 1000.64 ± 0.23 | 997.95 ± 0.23 | 994.42 ± 0.23 | 990.11 ± 0.23 | 985.14 ± 0.23 | 1.069 ± 0.009 | 0.842 ± 0.007 | 0.686 ± 0.006 | 0.578 ± 0.005 | 0.49 ± 0.004

CCCO [propan-1-ol] + Cc1c(N)cccc1N
[1], m2 = 0
Details | mass density [kg/m3] | viscosity [mPa·s]
293.15 K | 803.86 ± 0.17 | 2.171 ± 0.014
303.15 K | 795.54 ± 0.17 | 1.696 ± 0.012
313.15 K | 787.37 ± 0.17 | 1.338 ± 0.009
323.15 K | 779.01 ± 0.18 | 1.067 ± 0.007
333.15 K | 770.42 ± 0.18 | 0.859 ± 0.006
